The results in this text go back to ChEMBL document CHEMBL1212835, “Identification of a potent and noncytotoxic inhibitor of melanin production” (Bioorg Med Chem, 2010).

Calls of active or inactive are those of the source. The rule behind the calls is not given here.

In the first data set the test system is Cavia porcellus. Nature of the data set: Antimelanogenic activity in guinea pig skin assessed as inhibition of UVB-induced pigmentation at 10 ug administered topically bid for 4 weeks. The class given is functional, organism-based.
Conditions: not given
`COc1cccc(C(=O)Nc2cc(C)cc(C)c2)c1`: the result was Active.

System in the next data set: not listed separately
Nature of the data set: Cytotoxicity against mouse Melan-a cells assessed as cell viability at 30 uM. The class given is cell-based. The following applies: Melan-a cells, read-out: Activity.
With `COc1cccc(C(=O)Nc2cc(C)cc(C)c2)c1`, the viability at 30 µM worked out at 32%.

Consider `COc1ccc(NC(=O)c2ccco2)c(OC)c1`, for which the viability at 30 µM was -24.1%. On to `COc1ccc(C(=O)Nc2cc(OC)ccc2OC)cc1`, for which the viability at 30 µM was -8.3%. As to `COC(=O)c1cccc(NC(=O)c2cccc(OC)c2)c1`, the viability at 30 µM came out at 20.1%. As to `CCc1ccc(C(=O)Nc2ccc(C(C)=O)cc2)cc1`, the viability at 30 µM is 3.4%. For the compound `COC(=O)c1ccccc1NC(=O)c1ccc(C)cc1`, the viability at 30 µM amounted to 20.1%. Consider `Cc1ccc(NC(=O)c2ccc(C)cc2)cc1`, for which the viability at 30 µM came out at 13.9%. For the compound `COc1cc(NC(=O)c2ccc(C)cc2)cc(OC)c1`, the viability at 30 µM worked out at 19.2%. With `COC(=O)c1ccccc1NC(=O)c1ccc(OC)cc1`, the viability at 30 µM turned out to be 31.1%. With `CCc1ccc(C(=O)Nc2ccc(C(=O)OC)cc2)cc1`, the viability at 30 µM amounted to 2%. With `Cc1cc(C)cc(NC(=O)c2cccc(C)c2)c1`, the viability at 30 µM was 6%. The same measure, in the same setting: the result for `COc1ccc(C(=O)Nc2ccc(C(C)=O)cc2)cc1` reads 0.7%; that for `CCCCOc1ccc(NC(=O)c2ccc(OC)cc2)cc1`, 1%. The same measure, in the same setting: with `Cc1cccc(C(=O)Nc2cc(C(F)(F)F)cc(C(F)(F)F)c2)c1` the figure was -2.3%.

On to `COc1cccc(C(=O)Nc2ccc(C(C)=O)cc2)c1`, for which the viability at 30 µM was -5%. Consider `COc1cc(NC(=O)c2cccc(OC)c2)cc(OC)c1`, for which the viability at 30 µM was 9.6%. Turning to `CC(=O)c1ccc(NC(=O)c2cccc(C)c2)cc1`, the viability at 30 µM was -5.9%. Still for that read-out and setting: with `COC(=O)c1ccc(NC(=O)c2ccc(C#N)cc2)cc1` the figure was 14.2%; with `COc1ccc(C(=O)Nc2cccc(C)c2)cc1`, -1.7%. For the compound `CCCCOc1ccc(NC(=O)c2ccco2)cc1`, the viability at 30 µM amounted to 3.7%. `CCc1ccc(C(=O)Nc2ccc(OC)cc2OC)cc1`: the viability at 30 µM was -6.5%. As to `Cc1ccccc1C(=O)Nc1cc(C(F)(F)F)cc(C(F)(F)F)c1`, the viability at 30 µM amounted to 15.1%. Take `COc1cccc(C(=O)Nc2cc(OC)ccc2OC)c1`: the viability at 30 µM turned out to be 17.8%. With `COc1cc(NC(=O)c2ccc(C#N)cc2)cc(OC)c1`, the viability at 30 µM turned out to be 9.6%. With `CC(=O)c1ccc(NC(=O)c2ccc(C)cc2)cc1`, the viability at 30 µM was found to be 11.2%.

As to `COc1cc(NC(=O)c2ccccc2C)cc(OC)c1`, the viability at 30 µM came to 6.4%.

`COc1ccccc1NC(=O)c1ccccc1C`: the viability at 30 µM is 7%. On the same count and under the same terms, with `Cc1cccc(NC(=O)c2ccccc2C)c1` the figure was 5.8%; with `Cc1cc(C)cc(NC(=O)c2ccccc2C)c1`, 25.6%. As for `CC(=O)c1ccc(NC(=O)c2ccccc2C)cc1`, the viability at 30 µM worked out at 0.1%. In the case of `COc1ccccc1NC(=O)c1cccc(C)c1`, the viability at 30 µM was determined as 11.1%. For the compound `CCCCOc1ccc(NC(=O)c2ccc(CC)cc2)cc1`, the viability at 30 µM was -10.8%. On the same count and under the same terms, the result for `Cc1ccc(C(=O)Nc2cccc(C)c2)cc1` reads 14.3%; that for `COc1ccc(C(=O)Nc2ccc(OC)cc2OC)cc1`, -9.4%; that for `COc1ccccc1NC(=O)c1ccc(C)cc1`, 18.5%. As to `CCc1ccc(C(=O)Nc2cccc(C)c2)cc1`, the viability at 30 µM is -2.2%. With `COc1cccc(NC(=O)c2ccccc2C)c1`, the viability at 30 µM is 13.4%. Regarding `COc1cccc(C(=O)Nc2cccc(C)c2)c1`, the viability at 30 µM is 12%. Regarding `Cc1ccc(NC(=O)c2ccccc2C)cc1`, the viability at 30 µM was -0.2%. Take `COc1ccc(NC(=O)c2ccc(C)cc2)c(OC)c1`: the viability at 30 µM came to 14.4%. In the case of `COc1ccc(C(=O)Nc2ccc(C)cc2)cc1`, the viability at 30 µM turned out to be 0.7%.
